Remaining binding data for 4 molecules are collected here from paper PMC10004634 (PLOS ONE, 2023).

Structures are written as SMILES. Like-named read-outs stand apart in the source and are kept apart here.

Common to all, as to test: biochemical
Design in all cases: KINOMEscan scanMAX competition binding, DNA-tagged kinases, qPCR read-out, percent control at 300 nM

Experiment [1] addresses T1, MAP4K2 (Homo sapiens, UniProt Q12851).
T1 sequence (Q12851 1-820): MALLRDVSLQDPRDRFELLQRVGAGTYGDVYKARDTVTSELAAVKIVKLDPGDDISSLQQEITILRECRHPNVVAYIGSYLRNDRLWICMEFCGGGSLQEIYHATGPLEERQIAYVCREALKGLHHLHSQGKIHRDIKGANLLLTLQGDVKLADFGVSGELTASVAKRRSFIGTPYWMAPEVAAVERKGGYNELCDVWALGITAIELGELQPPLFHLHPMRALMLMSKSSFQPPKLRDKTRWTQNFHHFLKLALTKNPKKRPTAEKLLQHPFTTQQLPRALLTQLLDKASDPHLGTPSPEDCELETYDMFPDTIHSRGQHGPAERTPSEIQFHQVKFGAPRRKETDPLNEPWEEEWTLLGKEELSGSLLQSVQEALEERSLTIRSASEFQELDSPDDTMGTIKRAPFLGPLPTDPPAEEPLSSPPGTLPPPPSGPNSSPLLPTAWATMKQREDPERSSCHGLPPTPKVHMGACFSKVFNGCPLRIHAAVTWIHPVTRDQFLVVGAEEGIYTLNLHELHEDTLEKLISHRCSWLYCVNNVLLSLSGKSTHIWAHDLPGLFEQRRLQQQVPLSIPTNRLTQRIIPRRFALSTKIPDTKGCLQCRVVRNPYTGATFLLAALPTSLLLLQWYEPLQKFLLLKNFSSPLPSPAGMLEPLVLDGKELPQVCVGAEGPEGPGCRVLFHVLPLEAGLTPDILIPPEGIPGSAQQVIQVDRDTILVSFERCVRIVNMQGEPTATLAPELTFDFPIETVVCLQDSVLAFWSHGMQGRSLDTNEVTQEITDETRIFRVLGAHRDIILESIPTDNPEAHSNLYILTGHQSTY

Experiment [2] addresses KIT(V559D,T670I) (Homo sapiens, UniProt P10721, T670I/V559D).
Experiment [3] addresses T2, RIOK1 (Homo sapiens, UniProt Q9BRS2).
T2 sequence (Q9BRS2 1-568): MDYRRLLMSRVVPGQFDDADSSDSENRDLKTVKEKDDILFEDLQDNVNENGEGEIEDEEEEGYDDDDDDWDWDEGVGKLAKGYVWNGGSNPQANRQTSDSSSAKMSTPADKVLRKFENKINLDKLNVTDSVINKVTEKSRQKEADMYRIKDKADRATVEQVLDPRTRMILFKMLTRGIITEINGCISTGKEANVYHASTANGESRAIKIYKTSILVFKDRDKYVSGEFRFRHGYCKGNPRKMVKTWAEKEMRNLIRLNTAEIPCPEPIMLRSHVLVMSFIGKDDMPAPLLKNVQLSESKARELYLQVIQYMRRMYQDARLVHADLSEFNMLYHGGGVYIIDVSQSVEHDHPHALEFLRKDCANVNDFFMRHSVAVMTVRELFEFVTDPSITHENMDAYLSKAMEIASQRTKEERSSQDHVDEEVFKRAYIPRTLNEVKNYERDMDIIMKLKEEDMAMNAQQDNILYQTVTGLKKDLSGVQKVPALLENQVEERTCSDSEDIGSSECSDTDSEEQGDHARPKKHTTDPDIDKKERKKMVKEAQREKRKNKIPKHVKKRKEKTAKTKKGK

The target of experiment [4] is CAMK1D (Homo sapiens, UniProt Q8IU85).
Experiment [5] concerns the target T3, AURKC (Homo sapiens, UniProt Q9UQB9).
T3 sequence (Q9UQB9 1-309): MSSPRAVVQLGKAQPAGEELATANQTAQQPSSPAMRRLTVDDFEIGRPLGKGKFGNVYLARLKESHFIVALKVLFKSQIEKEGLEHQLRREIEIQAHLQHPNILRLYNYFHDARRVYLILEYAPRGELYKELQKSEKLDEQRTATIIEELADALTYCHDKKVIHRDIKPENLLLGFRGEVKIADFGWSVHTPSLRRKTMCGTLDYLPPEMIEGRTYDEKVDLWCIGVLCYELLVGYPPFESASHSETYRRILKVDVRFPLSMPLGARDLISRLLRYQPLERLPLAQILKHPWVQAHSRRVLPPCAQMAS

The mark [6] stands for this setting: read-out: Percent control / Tirabrutinib.
Where [7] appears, read: read-out: Percent control / Acalabrutinib.
The mark [8] stands for this setting: read-out: Percent control / Ibrutinib.
The mark [9] stands for this setting: read-out: Percent control / Zanubrutinib.

KIT(V559D,T670I), sequence (P10721 whole entry V559D/T670I): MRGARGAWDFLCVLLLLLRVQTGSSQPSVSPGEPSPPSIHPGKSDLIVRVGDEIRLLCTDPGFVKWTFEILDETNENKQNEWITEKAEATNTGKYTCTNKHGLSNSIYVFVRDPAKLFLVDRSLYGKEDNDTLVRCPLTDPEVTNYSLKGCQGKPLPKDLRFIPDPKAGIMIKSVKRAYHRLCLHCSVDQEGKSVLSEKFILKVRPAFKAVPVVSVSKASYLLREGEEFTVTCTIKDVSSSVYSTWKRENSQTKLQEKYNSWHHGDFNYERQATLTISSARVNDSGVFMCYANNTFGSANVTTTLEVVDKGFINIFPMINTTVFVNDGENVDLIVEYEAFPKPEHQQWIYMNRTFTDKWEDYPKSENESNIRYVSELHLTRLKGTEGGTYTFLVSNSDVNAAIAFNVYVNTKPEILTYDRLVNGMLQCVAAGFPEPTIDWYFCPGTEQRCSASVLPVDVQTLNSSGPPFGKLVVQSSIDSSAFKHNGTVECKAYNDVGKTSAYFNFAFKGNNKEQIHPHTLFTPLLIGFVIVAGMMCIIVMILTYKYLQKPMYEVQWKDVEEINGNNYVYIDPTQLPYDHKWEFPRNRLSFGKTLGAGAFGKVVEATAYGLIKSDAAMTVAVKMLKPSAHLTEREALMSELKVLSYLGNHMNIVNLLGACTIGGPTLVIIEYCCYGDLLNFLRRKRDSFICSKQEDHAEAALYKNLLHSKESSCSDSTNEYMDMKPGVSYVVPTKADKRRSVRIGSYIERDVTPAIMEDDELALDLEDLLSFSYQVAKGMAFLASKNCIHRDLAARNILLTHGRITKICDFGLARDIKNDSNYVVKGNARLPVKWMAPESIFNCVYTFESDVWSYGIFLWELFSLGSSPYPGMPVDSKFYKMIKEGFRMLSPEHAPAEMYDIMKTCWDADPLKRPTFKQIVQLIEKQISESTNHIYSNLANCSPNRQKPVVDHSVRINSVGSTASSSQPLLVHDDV
CAMK1D, sequence (Q8IU85 whole entry): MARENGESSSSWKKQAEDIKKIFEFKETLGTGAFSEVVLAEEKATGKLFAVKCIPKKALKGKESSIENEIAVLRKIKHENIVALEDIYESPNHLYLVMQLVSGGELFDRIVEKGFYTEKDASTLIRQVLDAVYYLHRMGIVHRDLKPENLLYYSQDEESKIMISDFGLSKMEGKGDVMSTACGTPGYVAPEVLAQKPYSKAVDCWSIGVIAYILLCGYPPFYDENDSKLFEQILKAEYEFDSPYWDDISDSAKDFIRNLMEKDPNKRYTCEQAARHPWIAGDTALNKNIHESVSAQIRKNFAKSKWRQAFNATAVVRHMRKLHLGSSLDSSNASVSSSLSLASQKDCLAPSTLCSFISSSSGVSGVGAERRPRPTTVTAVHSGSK

As for `CC#CC(=O)N1CC[C@@H](n2c(=O)n(-c3ccc(Oc4ccccc4)cc3)c3c(N)ncnc32)C1` [Tirabrutinib], the remaining binding at 0.3 µM is 80% in experiment [1] (setting [6]); 98% in experiment [2] (setting [6]); 79% in experiment [3] (setting [6]); 99% in experiment [4] (setting [6]); 65% in experiment [5] (setting [6]).

`CC#CC(=O)N1CCC[C@H]1c1nc(-c2ccc(C(=O)Nc3ccccn3)cc2)c2c(N)nccn12` [Acalabrutinib]: the remaining binding at 0.3 µM was 78% in experiment [2] (setting [7]), 72% in experiment [3] (setting [7]), 71% in experiment [4] (setting [7]) and 64% in experiment [5] (setting [7]).

`C=CC(=O)N1CCC[C@@H](n2nc(-c3ccc(Oc4ccccc4)cc3)c3c(N)ncnc32)C1` [Ibrutinib]: the remaining binding at 0.3 µM amounted to 68% in experiment [1] (setting [8]), 51% in experiment [3] (setting [8]), 97% in experiment [4] (setting [8]) and 54% in experiment [5] (setting [8]).

`C=CC(=O)N1CCC([C@@H]2CCNc3c(C(N)=O)c(-c4ccc(Oc5ccccc5)cc4)nn32)CC1` [Zanubrutinib]: the remaining binding at 0.3 µM was found to be 43% in experiment [1] (setting [9]); 62% in experiment [2] (setting [9]); 75% in experiment [3] (setting [9]); 81% in experiment [4] (setting [9]); 97% in experiment [5] (setting [9]).
